From patent US6936624B2, “Agents for preserving technical materials against insects” (Nihon Bayer Agrochem K.K., priority 1991, dated 2005)
Several values for one entry are separate records, joined by “and”; a condition that tells them apart may be missing. Equal entries are not always repeated. Where two headings read alike, the source gives them in different places.

What was measured:
[1] = test system: working termites and soldier termites (Coptotermes formosanus); experiment: whole plant or invertebrate; type: in vivo; conditions: for Degree of xylophagous damage in the pine tree block (0-5): after three weeks; for mortality at 0.32 ppm / mortality at 1.6 ppm / mortality at 8 ppm / mortality at 40 ppm: Coptotermes formosanus, read-out: Mortality termites after three weeks; for Mortality termites after three weeks: blocks aged four weeks at 40° C.
Protocol: Small blocks of Japanese redpine tree (2 cm×2 cm×2 cm) were soaked for one minute into the aqueous solution prepared by the similar procedure to Example 8.
After air-dried, they were kept in a constant temperature chamber at 40° C. for four weeks. Then each of the thus treated blocks was placed in a polymeric cup (10 cm diameter) containing 150 ml of sandy loam of 20% moisture content. Into each of the polymeric cups, 100 head of working termites and 10 head of soldier termites (Coptotermes formosanus) were released. After three weeks, the degree of xylophagous damage in the block and the mortality of the termites were investigated.

[2] = test system: larvae of Hylotrupes bajulus; conditions: comparative values, Holz als Roh- und Werkstoff 35 (1977) 233-237, table 6; cited from earlier work
[3] = test system: worker termites (Coptotermes formosanus); experiment: Formicidal test: treated filter paper in petri dish, termite mortality; type: in vivo; conditions: for mortality at 0.32 ppm / mortality at 1.6 ppm / mortality at 8 ppm / mortality at 40 ppm: Coptotermes formosanus, 96 h, read-out: Mortality of termites after four days
From the text: Examples of the active compounds according to the present invention • I.1: 1-(6-chloro-3-pyridylmethyl)-2-nitromethylene-imidazolidine • I.2: 3-(6-chloro-3-pyridylmethyl)-2-nitromethylene-thiazolidine • I.3: imidacloprid
Comparative compounds • A: phoxim • B: chlorpyriphos Preparation of test formulation: • Solvent: 3 parts by weight of xylene • Emulsifier: 1 part by weight of polyoxyethylene-alkylphenyl-ether
To prepare a suitable formulation of the active compound, 1 part by weight of each of the active compounds was mixed with the above-mentioned amount of the solvent containing the above-mentioned amount of the emulsifier, and the mixture was diluted with water to a predetermined concentration.
1 ml of the aqueous solution prepared in the above-mentioned procedure was uniformly applied using a pipette onto a filter paper that was placed in petri dish of 9 cm diameter. Ten head of worker termites (Coptotermes formosanus) were replaced into the petri dish and it was kept in a constant temperature chamber at 25° C.
After four days, the mortality of the termites was investigated. This test procedure was carried out in duplicate per each concentration of the active compounds under test.

[4] = test system: Reticulitermes santonensis; conditions: comparative values, Holz als Roh- und Werkstoff 35 (1977) 233-237, table 10; cited from earlier work
[5] = test system: Reticulitermes santonensis; experiment: Effectiveness against Reticulitermes santonensis, DIN EN 117, impregnated wood samples; type: in vivo; conditions: eight weeks, per wood sample
Protocol: The toxicity against Reticulitermes santonensis of solutions containing the active compound I.3 in chloroform having the concentrations mentioned in Example 10 was determined according to the detailed description of DIN EN 117 Edition 1981 which is concerned with the European standard method prescribed by the European Committee for standardization concerning wood preservatives, determination of the toxic value against Reticulitermes santonesis.
An outline of the method is as follows: (see DIN EN 117 for detail)
The same three wood-samples with impregnation treatment in vacuum as in Example 10 are provided.
They are exposed to 250 workers, 1 soldier and 1 nymph per batch for eight weeks, and afterword, the number of live/dead larvae is determined.
The evaluation was made by the following standard:
* rating values: • 0=no attack • 1=attempted attack • 2=slight attack • 3=average attack • 4=strong attack

[6] = test system: larvae of Hylotrupes bajulus; experiment: Toxic value against larvae of Hylotrupes bajulus, DIN EN 47, impregnated wood samples; type: in vivo
From the text: The toxicity against larvae of Hylotorupes bajulus, using wood samples treated with the active compound I.3 […] to the detailed description of DIN EN 47 (edition 1990, Beuth Verlag GMBH) which is concerned with the European standard method prescribed by the European Committee for standardization concerning wood preservatives, determination of the toxic value against larvae of Hylotrupes bajulus.
An outline of the method is as follows: (see DIN EN 47 for detail)
Five wood-samples (50 mm×25 mm×15 mm) which are treated by the active compound beforehand (impregnation treatment in vacuum) are provided and in each specimen, a regular pattern of six holes are bored, and then one head of the larvae is inserted per a hole.
After four weeks, the specimens are cut up in turn and the number of live/dead of larvae is determined.
In determination, where a live larvae is identified in a specimen, then the remaining specimens without cutting up are stored for a further eight weeks, and afterword, the number of live/dead larvae is determined.

[7] = 0.32 ppm active compound, filter paper, 25° C.
[8] = 1.6 ppm active compound, filter paper, 25° C.
[9] = 8 ppm active compound, filter paper, 25° C.
[10] = 40 ppm active compound, filter paper, 25° C.
[11] = 1.44 × 10^−2% (m/m), average absorbed 136.627 g/m^3
[12] = 1.44 × 10^−3% (m/m), average absorbed 13.463 g/m^3
[13] = 1.44 × 10^−4% (m/m), average absorbed 1.344 g/m^3
[14] = 1.44 × 10^−5% (m/m), average absorbed 0.135 g/m^3
[15] = 7.20 × 10^−3% (m/m), average absorbed 68.211 g/m^3
[16] = 4 weeks, impregnating solution 0.00144 %, M-value 10.80 g/m^3 wood
[17] = 4 weeks, impregnating solution 0.0072 %, M-value 52.85 g/m^3 wood
[18] = 4 weeks, impregnating solution 0.0144 %, M-value 103.97 g/m^3 wood
[19] = 12 weeks, impregnating solution 0.000144 % (so in the source), M-value 0.11 g/m^3 wood
[20] = 12 weeks, impregnating solution 0.000144 %, M-value 1.08 g/m^3 wood
[21] = 12 weeks, impregnating solution 0.00144 % (remaining three specimens), M-value 10.80 g/m^3 wood

CCOP(=S)(OCC)O/N=C(\C#N)c1ccccc1 [A, 0-(α-cyanobenzylideneamino)0,0-diethylphosphorothioate, reference compound]
Degree of xylophagous damage in the pine tree block (0-5) ([1]; 0.32 ppm): 5 | Degree of xylophagous damage in the pine tree block (0-5) ([1]; 1.6 ppm): 5 | Degree of xylophagous damage in the pine tree block (0-5) ([1]; 8 ppm): 5 | Degree of xylophagous damage in the pine tree block (0-5) ([1]; 40 ppm): 3 | mortality at 0.32 ppm [1]: 0% | mortality at 1.6 ppm [1]: 0% | mortality at 8 ppm [1]: 0% | mortality at 40 ppm [1]: 25% | toxic value [2]: 7-12 g/m^3 | mortality at 0.32 ppm [3, 7]: 90% | mortality at 1.6 ppm [3, 8]: 100% | mortality at 8 ppm [3, 9]: 100% | mortality at 40 ppm [3, 10]: 100% | toxic value [4]: 400 g/m^3

CCOP(=S)(OCC)Oc1nc(Cl)c(Cl)cc1Cl [B, 0,0-diethyl-3,5,6-trichloro-2-pyridylphosphorothioate, reference compound]
Degree of xylophagous damage in the pine tree block (0-5) ([1]; 0.32 ppm): 5 | Mortality termites after three weeks ([1]; 0.32 ppm): 0% | Degree of xylophagous damage in the pine tree block (0-5) ([1]; 1.6 ppm): 3 | Mortality termites after three weeks ([1]; 1.6 ppm): 0% | Degree of xylophagous damage in the pine tree block (0-5) ([1]; 8 ppm): 1 | Mortality termites after three weeks ([1]; 8 ppm): 78% | Degree of xylophagous damage in the pine tree block (0-5) ([1]; 40 ppm): 0 | Mortality termites after three weeks ([1]; 40 ppm): 100% | Mortality of termites after four days [3, 7]: 100% | Mortality of termites after four days [3, 8]: 100% | Mortality of termites after four days [3, 9]: 100% | Mortality of termites after four days [3, 10]: 100%

CCC(C)c1ccccc1OC(=O)NC (stereo not drawn) [Bassa (Baycarb)]
toxic value [4]: 500 g/m^3

CCOP(=S)(OCC)ON=C(C#N)c1ccccc1Cl [Chlorophoxim]
toxic value [4]: 500 g/m^3

Clc1ccc(C(c2ccc(Cl)cc2)C(Cl)(Cl)Cl)cc1 [DDT]
toxic value [2]: 5-10 g/m^3 | toxic value [4]: >1 500 g/m^3

ClC1=C(Cl)[C@]2(Cl)[C@@H]3[C@@H]4C[C@@H]([C@H]5O[C@@H]45)[C@@H]3[C@@]1(Cl)C2(Cl)Cl [Dieldrin]
toxic value [4]: 50 g/m^3

CCOP(=S)(OCC)Oc1ccc([N+](=O)[O-])cc1 [Ethylparathion]
toxic value [4]: 200 g/m^3

O=[N+]([O-])C=C1NCCN1Cc1ccc(Cl)nc1 [I.1, 1-(6-chloro-3-pyridylmethyl)-2-nitromethylene-imidazolidine]
Degree of xylophagous damage in the pine tree block (0-5) ([1]; 0.32 ppm): 0.5 | Degree of xylophagous damage in the pine tree block (0-5) ([1]; 1.6 ppm): 0 | Degree of xylophagous damage in the pine tree block (0-5) ([1]; 8 ppm): 0 | Degree of xylophagous damage in the pine tree block (0-5) ([1]; 40 ppm): 0 | mortality at 0.32 ppm [1]: 98% | mortality at 1.6 ppm [1]: 100% | mortality at 8 ppm [1]: 100% | mortality at 40 ppm [1]: 100% | mortality at 0.32 ppm [3, 7]: 100% | mortality at 1.6 ppm [3, 8]: 100% | mortality at 8 ppm [3, 9]: 100% | mortality at 40 ppm [3, 10]: 100%

O=[N+]([O-])C=C1SCCN1Cc1ccc(Cl)nc1 [I.2, 3-(6-chloro-3-pyridylmethyl)-2-nitromethylene-thiazolidine]
Degree of xylophagous damage in the pine tree block (0-5) ([1]; 0.32 ppm): 0 | Degree of xylophagous damage in the pine tree block (0-5) ([1]; 1.6 ppm): 0 | Degree of xylophagous damage in the pine tree block (0-5) ([1]; 8 ppm): 0 | Degree of xylophagous damage in the pine tree block (0-5) ([1]; 40 ppm): 0 | mortality at 0.32 ppm [1]: 100% | mortality at 1.6 ppm [1]: 100% | mortality at 8 ppm [1]: 100% | mortality at 40 ppm [1]: 100% | mortality at 0.32 ppm [3]: 100% | mortality at 1.6 ppm [3]: 100% | mortality at 8 ppm [3]: 100% | mortality at 40 ppm [3]: 100%

O=[N+]([O-])N=C1NCCN1Cc1ccc(Cl)nc1 [I.3, 1-(6-chloro-3-pyridylmethyl)-2-nitroimino-imidazolidine]
rating [5, 11]: 0 | surviving workers [5, 11]: 0% | rating [5, 12]: 1 | surviving workers [5, 12]: 0% | rating [5, 13]: 1 | surviving workers [5, 13]: 0% | rating [5, 14]: 4 | surviving workers [5, 14]: 55% and 51% and 58% | rating [5, 15]: 0 | surviving workers [5, 15]: 0% | State of the larvae at the end of the test: dead, no wood digested [6, 16]: 4 | State of the larvae at the end of the test: dead, wood digested [6, 16]: 6 | State of the larvae at the end of the test: living [6, 16]: 1 | State of the larvae at the end of the test: not found [6, 16]: 1 | State of the larvae at the end of the test: dead, no wood digested [6, 17]: 29 | State of the larvae at the end of the test: dead, wood digested [6, 17]: 1 | State of the larvae at the end of the test: living [6, 17]: 0 | State of the larvae at the end of the test: not found [6, 17]: 0 | State of the larvae at the end of the test: dead, no wood digested [6, 18]: 27 | State of the larvae at the end of the test: dead, wood digested [6, 18]: 3 | State of the larvae at the end of the test: living [6, 18]: 0 | State of the larvae at the end of the test: not found [6, 18]: 0 | State of the larvae at the end of the test: dead, no wood digested [6, 19]: 1 | State of the larvae at the end of the test: dead, wood digested [6, 19]: 4 | State of the larvae at the end of the test: living [6, 19]: 23 | State of the larvae at the end of the test: not found [6, 19]: 2 | State of the larvae at the end of the test: dead, no wood digested [6, 20]: 4 | State of the larvae at the end of the test: dead, wood digested [6, 20]: 12 | State of the larvae at the end of the test: living [6, 20]: 11 | State of the larvae at the end of the test: not found [6, 20]: 3 | State of the larvae at the end of the test: dead, no wood digested [6, 21]: 6 | State of the larvae at the end of the test: dead, wood digested [6, 21]: 11 | State of the larvae at the end of the test: living [6, 21]: 0 | State of the larvae at the end of the test: not found [6, 21]: 1 | Degree of xylophagous damage in the pine tree block (0-5) ([1]; 0.32 ppm): 0 | Degree of xylophagous damage in the pine tree block (0-5) ([1]; 1.6 ppm): 0 | Degree of xylophagous damage in the pine tree block (0-5) ([1]; 8 ppm): 0 | Degree of xylophagous damage in the pine tree block (0-5) ([1]; 40 ppm): 0 | mortality at 0.32 ppm [1]: 100% | mortality at 1.6 ppm [1]: 100% | mortality at 8 ppm [1]: 100% | mortality at 40 ppm [1]: 100% | mortality at 0.32 ppm [3]: 100% | mortality at 1.6 ppm [3]: 100% | mortality at 8 ppm [3]: 100% | mortality at 40 ppm [3]: 100%

Cl[C@H]1[C@H](Cl)[C@@H](Cl)[C@@H](Cl)[C@H](Cl)[C@H]1Cl [Lindan]
toxic value [4]: 75 g/m^3

CNC(=O)Oc1ccccc1OC(C)C [Propoxur]
toxic value [2]: 18-30 g/m^3 | toxic value [4]: 140 g/m^3
